Source: PubChem BioAssay (NCI)
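How tested: cells in 96-well plates exposed to compound for 48 hours at five concentrations. Here, GI50 denotes the concentration required for 50% inhibition of growth. The concentration for full growth arrest is given as TGI.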

Columns and labels:
Assay in all cases: NCI tumour cell line growth inhibition, 48 h
[1] = tested on: MDA-N
[2] = tested on: PC-3 prostate
[3] = tested on: HT29 colon
[4] = tested on: NCI-H23 lung
[5] = tested on: 786-0 renal
[6] = tested on: HL-60(TB) leukemia
[7] = tested on: OVCAR-4 ovarian
[8] = tested on: RXF 393 renal
[9] = tested on: SK-OV-3 ovarian
[10] = tested on: M14 melanoma

SMILES | TGI [1] [µM] | TGI [2] [µM] | TGI [3] [µM] | TGI [4] [µM] | TGI [5] [µM] | TGI [6] [µM] | TGI [7] [µM] | TGI [8] [µM] | TGI [9] [µM] | TGI [10] [µM] | GI50 [2] [µM] | GI50 [7] [µM] | GI50 [8] [µM] | GI50 [9] [µM]
CCCCC1=C(C(=O)N2CCOCC2)C2(OCCO2)C1=O | 71.2 | 98.3 | 45.1 | 51.1 | 40.6 | 61.2 | > 100 | 50.3 | > 100 | 43.8 |  |  |  | 
CC(C)c1cccc(C(C)C)c1NC(=O)/C(CC(=O)CC(c1ccccc1)c1c(O)c2ccccc2oc1=O)=N/O (stereo unspecified) | > 100 | > 100 | > 100 | > 100 | > 100 | > 100 | > 100 | > 100 | > 100 | > 100 |  |  |  | 
COc1cc(C(=O)Oc2ccc3c(c2)OCO3)cc(OC)c1OC | > 100 | > 100 | > 100 | > 100 | > 100 | > 100 | > 100 | > 100 | > 100 | > 100 |  |  |  | 
CC1(C)OCC2OC3([C@@H]4OC(C)(C)O[C@H]4CO)OC(C)(C)OC3C2O1 (stereo partly specified) | > 100 | > 100 |  | > 100 | > 100 |  | > 100 | > 100 |  | > 100 |  |  |  | 
Nc1nc(Cl)cc(NCC2(O)CC2)n1 | > 100 | > 100 | > 100 | > 100 | > 100 | > 100 | > 100 | > 100 | > 100 |  |  |  |  | 
COc1ccc(-c2c3c(n(C4OC(CO)C(O)C(O)C4O)c(=S)c2C#N)CCC3)cc1 (stereo unspecified) | > 100 | > 100 | > 100 | > 100 | > 100 | > 100 | > 100 | 63.6 | > 100 | > 100 |  |  |  | 
C/C=C(/C)C(=O)OC1CC(C)[C@H]2CC(=O)C(C)=C2CC1C(C)(C)OC(C)=O (stereo partly specified) | > 100 | > 100 | > 100 | > 100 | > 100 | 49.8 | 68 | 54.6 |  | 63.8 |  |  |  | 
O=C(O)c1cccc2cccc(-c3cccc4cccc(C(=O)O)c34)c12 | > 100 | > 100 | > 100 | > 100 | > 100 | > 100 | > 100 | > 100 | > 100 | > 100 |  |  |  | 
CC1CCC2(NC1)OC1CC3C4CC=C5CC(OC6OC(CO)C(OC7OC(C)C(O)C(O)C7O)C(O)C6OC6OC(C)C(O)C(O)C6O)CCC5(C)C4CCC3(C)C1C2C (stereo unspecified) | 4.99 | 4.28 | 15.6 | 27.1 | 3.72 | > 36 | 7.27 | 26.5 | 19.5 | 6.39 |  |  |  | 
CC(C)C(=O)C(C)(C)CCc1ccccn1 | > 100 | > 100 | > 100 | > 100 | > 100 | > 100 | > 100 | > 100 | > 100 | > 100 |  |  |  | 
Cc1cc(S(=O)(=O)Nc2n[nH]c(-c3ccccn3)n2)c(S)cc1Cl | > 100 | > 100 | 41.7 |  | 72.7 | 41.2 | 65.5 | 34.1 | 37.3 | 44.5 |  |  |  | 
C=C1C(OC2O[C@@H]3O[C@@]4(C)CC[C@H]5[C@H](C)CC[C@@H](C2=C)[C@@]35O4)O[C@@H]2O[C@@]3(C)CC[C@H]4[C@H](C)CC[C@@H]1[C@@]24O3 (stereo partly specified) | > 50 | > 50 | > 50 | > 50 | > 50 | > 50 | > 50 | > 50 | > 50 | > 50 |  |  |  | 
CC1C(NNc2ccccc2)Oc2cc3c(cc2C1c1ccccc1O)OCO3 (stereo unspecified) | 18.4 | 21.5 | 19.4 | 26.5 | 44.3 | 15.1 |  | 45.9 | 22.3 | 11.2 |  |  |  | 
CSC(SC)=C(C(=O)O)P(=O)(O)O | > 100 | > 100 | > 100 | > 100 | > 100 | > 100 | > 100 | > 100 | > 100 | > 100 |  |  |  | 
CN(C)c1ccc(/C=C(\NC(=O)c2ccccc2)c2nn(C)c(=O)o2)cc1 | > 100 | > 100 | > 100 | > 100 | > 100 | > 100 | 97.7 | > 100 | > 100 | > 100 |  |  |  | 
O=C(OCCN=c1c2ccccc2ccc2ccccc12)c1ccccc1 | > 100 | > 100 | > 100 | > 100 | > 100 | > 100 | > 100 | > 100 | > 100 | > 100 |  |  |  | 
CCc1c(CNc2ccc(C(=O)NC(CC(=O)O)C(=O)O)cc2)ccc2nc(N)nc(N)c12 (stereo unspecified) | > 1000 | > 1000 | > 1000 | > 1000 | > 1000 |  | > 1000 | > 1000 | > 1000 | > 1000 | < 0.01 | 869 | > 1000 | > 1000
Cc1[nH]c(=O)nc(NCCNCCO)c1C(=O)Nc1cccc2cc3ccccc3cc12 | > 100 | > 100 | > 100 | > 100 | > 100 | > 100 | > 100 | > 100 |  | > 100 |  |  |  | 
COc1cc(C(c2c(O)c3ccccc3oc2=O)c2c(O)c3ccccc3oc2=O)cc(Br)c1O | 36 | 35 | 37.1 | 42.7 | 37.8 | 64.2 | 30.9 | 39.6 | 35.8 | 31.4 |  |  |  | 
O=c1nc2c(c(-c3ccc(Br)cc3)[nH]1)COC/C2=C\c1ccc(Br)cc1 | > 50 | > 50 | > 50 | > 50 | > 50 | > 50 | > 50 | > 50 | > 50 | > 50 |  |  |  | 
O=c1[nH]c2nc3ccccc3nc2[nH]c1=O | > 100 | > 100 | > 100 | > 100 | > 100 | > 100 | > 100 | > 100 | > 100 | > 100 |  |  |  | 
N#C/C(=C/n1c(=S)[nH]c2ccc([N+](=O)[O-])cc21)C(N)=O | > 100 | > 100 | > 100 | > 100 | > 100 | > 100 | > 100 | > 100 | > 100 | > 100 |  |  |  | 

SMILES | TGI [1] [µM] | TGI [2] [µM] | TGI [3] [µM] | TGI [4] [µM] | TGI [5] [µM] | TGI [6] [µM] | TGI [7] [µM] | TGI [8] [µM] | TGI [9] [µM] | TGI [10] [µM] | GI50 [2] [µM] | GI50 [7] [µM] | GI50 [8] [µM] | GI50 [9] [µM]
CCC(CO)Nc1nc(NCc2ccccc2)c2ncn(C(C)C)c2n1 (stereo unspecified) | > 100 | 37.1 | 52.5 | 36.1 | > 80.7 | > 70.5 | > 58.1 | 20.9 | > 100 | 32.7 |  |  |  | 
COC(=O)C1(CCCCCBr)CCCCCCCCCCC1=O (stereo unspecified) | > 100 | > 100 | > 100 | > 100 | > 100 | 49.9 | > 100 | 51.9 | > 100 | > 100 |  |  |  | 
COc1ccc(Nc2nc(N)c(C(=O)c3c[nH]c4ccccc34)s2)cc1 | 0.878 | > 100 | 4.57 | > 95 | 13.6 | 14 | > 100 | 11.4 | > 100 | 16.4 |  |  |  | 
COC(=O)Cc1ccc2c(cnn2-c2ccccc2)c1OC | > 10 | > 10 | > 10 | > 10 | > 10 | > 10 | > 10 | > 10 | > 10 | > 10 |  |  |  | 
COc1ccc2nc(/C(N)=C\C#N)ccc2c1 | > 100 | > 100 | > 100 | > 100 | > 100 | 46.5 | > 100 | > 100 |  | > 100 |  |  |  | 
Cc1cc2c(O)c(c1)CN(CC(=O)O)Cc1cc(C)cc(c1O)CN(CC(=O)O)Cc1cc(C)cc(c1O)CN(CC(=O)O)C2 | > 100 | > 100 | > 100 | > 100 | > 100 |  | > 100 | > 100 | > 100 | > 100 |  |  |  | 
CCC(O)(Cc1ccc(OC)cc1)c1ccc(OC)cc1 (stereo unspecified) | > 100 | > 100 | > 100 | > 100 | > 100 | > 100 | > 100 | > 100 | > 100 | > 100 |  |  |  | 
O=C1C=CC(=O)c2c(O)c(N3CCC[C@H]3CO)c(Cl)c(O)c21 | 3.51 | > 10 | > 10 | 4.61 | 3.64 | 0.249 | 3.93 | 3.46 | > 10 | 3.61 |  |  |  | 
c1ccc2c(c1)Sc1nccc3ccnc-2c13 | > 100 | > 100 | 65.5 | > 100 | > 100 | > 100 | > 100 | > 100 | > 100 | > 100 |  |  |  | 
C[C@]12CCC(=O)[C@@H](CCC3=CC(=O)C=CC3=O)[C@@H]1CCC2=O | > 52.8 | 27.5 | 82.2 | 38.2 | 41.1 | 39.1 | 53.2 | 5.43 | 63.9 | 59.1 |  |  |  | 
OCCOCn1nncc1Cn1ncc2c(SCc3ccccc3)ncnc21 | > 100 | > 100 | > 100 | > 100 | > 100 | 53.5 | > 100 | > 100 | > 100 | > 100 |  |  |  | 
NC(=O)c1csc(C2(O)COC(CO)C2O)n1 (stereo unspecified) | > 100 | > 100 | > 100 | > 100 | > 100 |  | > 100 | > 100 | > 100 | > 100 |  |  |  | 
N#CC1(O)CCCCCCCCCCC1 | > 100 | > 100 | > 100 | > 100 | > 100 | > 100 | > 100 | > 100 | > 100 | > 100 |  |  |  | 
O=c1c(Cc2ccc(Cl)cc2)nnc2sc(-c3ccc(-c4ccc(F)c(Cl)c4)o3)nn12 | > 100 | > 100 | > 100 | > 100 | > 100 | > 100 | > 100 | > 100 | > 100 | > 100 |  |  |  | 
O=P(O)(O)c1ccccc1Oc1ccccc1 | > 100 | > 100 |  | > 100 | > 100 | > 100 |  | > 100 | > 100 | > 100 |  |  |  | 
CCP(=O)(OC)C1=CCN(C(=O)OCC[Si](C)(C)C)CC1 (stereo unspecified) | > 100 | > 100 | > 100 | > 100 | > 100 | > 100 | > 100 | > 100 | > 100 | > 100 |  |  |  | 
CC(C)C(CC(=O)OCC(CO)OC(=O)CC(C(C)C)C(C)C)C(C)C (stereo unspecified) | 30.1 | 30.3 | 32.1 | 30.4 | 27.9 |  | 33.4 | 30.8 | 30.9 | 29.5 |  |  |  | 
Cc1cc2ncn(C3CCCCO3)c2cc1C (stereo unspecified) | > 100 | > 100 | > 100 | > 100 | > 100 | > 100 | > 100 | > 100 | > 100 | > 100 |  |  |  | 
Cn1c(=O)c(-c2ccccc2)c(O)c2ccccc21 | > 100 | > 100 | > 100 | > 100 | > 100 | > 100 | > 100 | > 100 |  |  |  |  |  | 
C1=C2C3=[N+](CCCCC3)CC2Cc2ccsc21 (stereo unspecified) | > 100 | > 100 | > 100 | > 100 | > 100 | > 100 | > 100 | > 100 | > 100 | > 100 |  |  |  | 
CN(C)CC1CCC/C(=C\c2ccc(OC(=O)c3ccc(Cl)cc3)cc2)C1=O (stereo unspecified) | 7.45 | 18.4 | 4.1 | 3.5 | 2.3 | 11.9 | 8.94 |  | 34.6 | 3.27 |  |  |  | 
COC(=O)C1C(C(=O)OC)C2(OC(c3ccc(Cl)cc3)=CC2=O)C12OC(c1ccc(Cl)cc1)=CC2=O (stereo unspecified) | 47.3 | 55.8 | 45.2 | 52.2 | 41 | 8.29 | 64.1 | 33.2 | > 100 | 42.8 |  |  |  | 
